# According to patent US20230032020A1, “SMALL-MOLECULE COVALENT INHIBITION OF RAL GTPASES” (THE TRUSTEES OF INDIANA UNIVERSITY, priority 2019, published 2023):
# Numbering of substitutions follows the chain as printed. Where two headings read alike, the source gives them in different places.
# Columns and labels:
# [1] = target: T1, RalB Tyr82Phe mutant (Homo sapiens, UniProt P11234, Y82F); assay: Rgl2-mediated guanine nucleotide exchange assay, RalB Tyr82Phe mutant; format: biochemical
# T1 construct: made in house; host or cells: E. coli BL21(DE3)
# T1 sequence (P11234 12-185 Y82F): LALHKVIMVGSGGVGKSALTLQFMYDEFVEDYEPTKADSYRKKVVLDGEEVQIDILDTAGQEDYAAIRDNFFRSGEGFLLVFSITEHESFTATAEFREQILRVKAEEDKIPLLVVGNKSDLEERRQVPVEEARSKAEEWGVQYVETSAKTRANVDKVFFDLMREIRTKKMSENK
# Protocol: To confirm that inhibition of RalB exchange by Rgl2 was due to covalent bond formation at Tyr-82, the nucleotide exchange study was repeated using RalB Tyr82Phe mutant. […] A concentration-dependent exchange study then was carried out to obtain the concentration of compound required for 50% inhibition of Rgl2-mediated exchange, as illustrated in FIG. 1D. This was done by incubating RalB with varying concentrations of Compound 1 for 24 hours at a temperature of 4° C., prior to the initiation of nucleotide exchange by the addition of Rgl2 and BODIPY-FL-GDP. The rate constant was calculated by fitting a 3-parameter exponential function for each measurement. To determine percent inhibition, the fitting was also done for control DMSO samples and samples without Rgl2.
# (§1) Exchange Assay: 10 μL of RalB (2 μM), RalA (2 μM), and Ras (0.8 μM) in an exchange assay buffer (100 mM NaCl, 10 mM MgCl2, 20 mM Tris pH 8, 0.01% IGEPAL) were added to a 384-well, black, round bottom, low volume, polystyrene plate (Corning, Corning, N.Y., Catalog Number: 4515) and incubated with 2 μL of varying concentrations of compounds in the exchange assay buffer supplemented with 20% v/v DMSO for 24 h (unless otherwise specified) at 4° C. After the incubation, 5 μL of RGL2 (1 μM), SOS (0.4 μM) or buffer was added. Finally, 3 μL of Bodipy-FL-GDP (1.67 μM for RalA/B, 1.0 μM for Ras) was added and the fluorescence was read immediately on an Envision Multilabel Plate Reader (PerkinElmer, Waltham, Mass.) using a filter set with excitation and emission wavelengths of 485 and 535 nm, respectively, for 40 min at 30 sec intervals.
# (§2) The fluorescence increase over time was fitted to an exponential function:
# (§3) Fluorescence Intensity=Initial Fluorescence+Extent of binding (1−e^−Rate×Time)
# (§4) The rate constant of the exchange was calculated by fitting experimental values for Fluorescence Intensity and corresponding Time. The Initial Fluorescence was estimated from the initial reading of the fluorescence intensity from the experimental control sample without guanine exchange factor (GEF). The Extent of binding is the difference between the maximal fluorescence intensity of the DMSO control sample versus the initial fluorescence recorded for the No GEF control sample.
# Percent Inhibition and compound concentration are experimental values. Maximum inhibition is set at 100 percent as no plateau were achieved. Minimum inhibition value was data-dependent and were mostly found to be near 0 percent. Due to the fact that the compounds were covalent inhibitors and not classical reversible inhibitors, Hillslope value was not constrained.
# [2] = target: T2, RalB (Homo sapiens, UniProt P11234); assay: Rgl2-mediated guanine nucleotide exchange assay (BODIPY-FL-GDP fluorescence), RalB wild-type; format: biochemical; conditions: for improvement in IC50 at 24 h compared to Compound 1: RalB WT
# T2 construct: made in house; host or cells: E. coli BL21(DE3)
# T2 sequence (P11234 12-185): T1 sequence (P11234 12-185 Y82F) with F71Y
# Protocol: Fragment-based screening using a library of 89 sulfonyl fluoride compounds was carried out to explore this possibility. A fluorescence-based guanine nucleotide exchange assay was used to measure inhibition of Rgl2-mediated exchange of Ral-bound GDP with fluorescently-labelled boron-dipyrromethene fluorescent GDP (BODIPY-FL-GDP). The increase in fluorescence intensity of the BODIPY-FL group is measured at 30 s intervals.
# A concentration-dependent exchange study then was carried out to obtain the concentration of compound required for 50% inhibition of Rgl2-mediated exchange, as illustrated in FIG. 1D. This was done by incubating RalB with varying concentrations of Compound 1 for 24 hours at a temperature of 4° C., prior to the initiation of nucleotide exchange by the addition of Rgl2 and BODIPY-FL-GDP. The rate constant was calculated by fitting a 3-parameter exponential function for each measurement. To determine percent inhibition, the fitting was also done for control DMSO samples and samples without Rgl2.
# as §1, §2, §3, §4
# Percent Inhibition and compound concentration are experimental values.
# [3] = Compound stability assay in buffer; format: physicochemical
# Protocol: Compound Stability Assay. 200 μM Compound 1 was incubated in a buffer containing 20 mM Tris pH 8.0, 100 mM NaCl, 10 mM MgCl2 at 4° C. for varying amounts time. After the incubation, the samples were centrifuged at 20,000×g for 10 min to remove precipitants prior to being injected into an Agilent EclipsePlus C18 RRHD column (Agilent, Santa Clara, Calif.) on an Agilent 1200 liquid chromatography system (Agilent, Santa Clara, Calif.), using a linear gradient from 100% Buffer A (H2O with 0.1% Formic Acid) to 70% Buffer B (acetonitrile with 0.1% Formic Acid), and the masses were detected on an Agilent 6520 Accurate Mass Q-TOF.
# [4] = target: T3, RalA (Homo sapiens, UniProt P11233); assay: Rgl2-mediated guanine nucleotide exchange assay, RalA; format: biochemical; conditions: concentration not given
# T3 construct: made in house; host or cells: E. coli BL21(DE3)
# T3 sequence (P11233 1-178): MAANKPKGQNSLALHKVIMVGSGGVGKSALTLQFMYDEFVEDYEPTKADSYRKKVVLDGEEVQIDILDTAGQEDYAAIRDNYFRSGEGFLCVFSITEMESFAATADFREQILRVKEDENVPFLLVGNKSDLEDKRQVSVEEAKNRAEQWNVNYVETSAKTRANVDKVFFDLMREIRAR
# Protocol: To further probe the contribution of individual amino acids within the binding site of Compound 1, the effect of the compound on the rate of nucleotide exchange was tested against two RalB mutants, Ser85Ala and Thr69Ala.
# as §1, §2, §3
# The rate constant of the exchange was calculated by fitting experimental values for Fluorescence Intensity and corresponding Time. […]
# [5] = system: Pa03C pancreatic cancer cell; assay: Pa03C pancreatic cancer cell growth in 3-D co-culture with fibroblasts; format: cell-based; conditions: relative to media or DMSO
# [6] = IC50 at 24 h (μM) RalB WT, 24 h incubation at 4° C.
SMILES,"IC50 [2, 6]",IC50 [1],further results
COc1cncc(NS(=O)(=O)c2ccc(S(=O)(=O)F)cc2)c1 [Compound 1],49.5 ± 2.3 µM,,"IC50 ([1]; read-out: IC50 at 24 h (μM) RalB Tyr82Phe, 24 h incubation at 4° C., NI = No Inhibition): > 100 µM; IC50 ([2]; IC50 at 6 h, Rgl2-mediated exchange of RalB, 6 h incubation at 4° C.): 153 ± 29.9 µM"
COc1ncccc1NS(=O)(=O)c1ccc(S(=O)(=O)F)cc1 [Compound 2],23.1 ± 6.8 µM,,"IC50 at 24 h (μM) RalB Tyr82Phe ([1]; 24 h incubation at 4° C., NI = No Inhibition): no inhibition; improvement in IC50 at 24 h compared to Compound 1 [2]: 2 fold"
O=S(=O)(F)c1ccc(S(=O)(=O)Nc2cccnc2O)cc1 [Compound 3],17 ± 7.7 µM,79.3 ± 19 µM,
O=S(=O)(F)c1ccc(S(=O)(=O)Nc2ncccc2Cl)cc1 [Compound 4],41.7 ± 8.5 µM,215 ± 84.5 µM,
O=S(=O)(F)c1ccc(S(=O)(=O)Nc2cccc(Cl)n2)cc1 [Compound 5],24.4 ± 4.9 µM,,improvement in IC50 at 24 h compared to Compound 1 [2]: 2 fold
O=S(=O)(F)c1ccc(S(=O)(=O)Nc2cccc(F)n2)cc1 [Compound 6],51.5 ± 5.2 µM,,
O=S(=O)(F)c1ccc(S(=O)(=O)Nc2cncc(Cl)n2)cc1 [Compound 7],49.4 ± 3.5 µM,,
COc1ccc(NS(=O)(=O)c2ccc(S(=O)(=O)F)cc2)cc1 [Compound 9],60.3 ± 3 µM,100 ± 11.1 µM,
CS(=O)(=O)c1ccc(NS(=O)(=O)c2ccc(S(=O)(=O)F)cc2)cn1 [Compound 10],147 ± 42 µM,238 ± 55.4 µM,
COc1cccc(NS(=O)(=O)c2ccc(S(=O)(=O)F)cc2)c1 [Compound 11],26 ± 4.6 µM,164 ± 42.3 µM,
COc1cc(NS(=O)(=O)c2ccc(S(=O)(=O)F)cc2)ccn1 [Compound 12],146 ± 14.2 µM,,
CCc1ccc(NS(=O)(=O)c2ccc(S(=O)(=O)F)cc2)cn1 [Compound 13],164 ± 26 µM,,
CCc1cncc(NS(=O)(=O)c2ccc(S(=O)(=O)F)cc2)c1 [Compound 14],91.4 ± 2.9 µM,167 ± 8.7 µM,
CCOc1cncc(NS(=O)(=O)c2ccc(S(=O)(=O)F)cc2)c1 [Compound 15],85.5 ± 7.9 µM,235 ± 167 µM,
CC(C)Oc1cncc(NS(=O)(=O)c2ccc(S(=O)(=O)F)cc2)c1 [Compound 16],79.5 ± 2.3 µM,333 ± 31 µM,
COc1cc(Cl)nc(NS(=O)(=O)c2ccc(S(=O)(=O)F)cc2)c1 [Compound 21],24 ± 1 µM,138 ± 34.2 µM,
COc1cccc(NS(=O)(=O)c2ccc(S(=O)(=O)F)cc2)n1 [Compound 22],64 ± 4.1 µM,,
COc1ccc(Cl)c(NS(=O)(=O)c2ccc(S(=O)(=O)F)cc2)n1 [Compound 23],127 ± 11.7 µM,,
COc1ncccc1NS(=O)(=O)c1ccc(S(=O)(=O)F)c2c1CCCC2 [SOF-371],,,inhibition of Y82F ([1]; 24 h incubation at 4° C.): inhibits Y82F; stability relative to Compound 1 [3]: higher stability than Compound 1; inhibition of RalB exchange ([2]; 24 h incubation at 4° C.): inhibits RalA and Ral B exchange; inhibition of RalA exchange [4]: inhibits RalA and Ral B exchange
COc1cc(F)cc(NS(=O)(=O)c2ccc(S(=O)(=O)F)c3c2OCCO3)c1 [SOF-531],,,inhibition of Pa03C pancreatic cancer cell growth [5]: concentration-dependent inhibition
